Data published in US11447505B1, “Pyrrolo[2,3-b]pyridine compounds and their use in the treatment of cancer” (priority 2017, dated 2022).
Read-outs that look alike come from different tables or passages of the source.

Legend:
MRCKα = MRCKα (Homo sapiens (Human), UniProt Q5VT25); test: MRCKα kinase assay (IMAP fluorescence polarization); format: biochemical
From the text: (§1) MRCKα, MRCKβ, ROCK1 and ROCK2 Kinase Assays

MRCKβ [1] = target: T1, MRCKβ (Homo sapiens (Human), UniProt Q9Y5S2); test: MRCKβ kinase assay (IMAP fluorescence polarization); format: biochemical
From the text: as §1

ROCK2 = ROCK2 (Homo sapiens (Human), UniProt O75116); test: ROCK2 kinase assay (IMAP fluorescence polarization); format: biochemical
Sequence of ROCK2 (O75116 whole entry, the tested form may be a part): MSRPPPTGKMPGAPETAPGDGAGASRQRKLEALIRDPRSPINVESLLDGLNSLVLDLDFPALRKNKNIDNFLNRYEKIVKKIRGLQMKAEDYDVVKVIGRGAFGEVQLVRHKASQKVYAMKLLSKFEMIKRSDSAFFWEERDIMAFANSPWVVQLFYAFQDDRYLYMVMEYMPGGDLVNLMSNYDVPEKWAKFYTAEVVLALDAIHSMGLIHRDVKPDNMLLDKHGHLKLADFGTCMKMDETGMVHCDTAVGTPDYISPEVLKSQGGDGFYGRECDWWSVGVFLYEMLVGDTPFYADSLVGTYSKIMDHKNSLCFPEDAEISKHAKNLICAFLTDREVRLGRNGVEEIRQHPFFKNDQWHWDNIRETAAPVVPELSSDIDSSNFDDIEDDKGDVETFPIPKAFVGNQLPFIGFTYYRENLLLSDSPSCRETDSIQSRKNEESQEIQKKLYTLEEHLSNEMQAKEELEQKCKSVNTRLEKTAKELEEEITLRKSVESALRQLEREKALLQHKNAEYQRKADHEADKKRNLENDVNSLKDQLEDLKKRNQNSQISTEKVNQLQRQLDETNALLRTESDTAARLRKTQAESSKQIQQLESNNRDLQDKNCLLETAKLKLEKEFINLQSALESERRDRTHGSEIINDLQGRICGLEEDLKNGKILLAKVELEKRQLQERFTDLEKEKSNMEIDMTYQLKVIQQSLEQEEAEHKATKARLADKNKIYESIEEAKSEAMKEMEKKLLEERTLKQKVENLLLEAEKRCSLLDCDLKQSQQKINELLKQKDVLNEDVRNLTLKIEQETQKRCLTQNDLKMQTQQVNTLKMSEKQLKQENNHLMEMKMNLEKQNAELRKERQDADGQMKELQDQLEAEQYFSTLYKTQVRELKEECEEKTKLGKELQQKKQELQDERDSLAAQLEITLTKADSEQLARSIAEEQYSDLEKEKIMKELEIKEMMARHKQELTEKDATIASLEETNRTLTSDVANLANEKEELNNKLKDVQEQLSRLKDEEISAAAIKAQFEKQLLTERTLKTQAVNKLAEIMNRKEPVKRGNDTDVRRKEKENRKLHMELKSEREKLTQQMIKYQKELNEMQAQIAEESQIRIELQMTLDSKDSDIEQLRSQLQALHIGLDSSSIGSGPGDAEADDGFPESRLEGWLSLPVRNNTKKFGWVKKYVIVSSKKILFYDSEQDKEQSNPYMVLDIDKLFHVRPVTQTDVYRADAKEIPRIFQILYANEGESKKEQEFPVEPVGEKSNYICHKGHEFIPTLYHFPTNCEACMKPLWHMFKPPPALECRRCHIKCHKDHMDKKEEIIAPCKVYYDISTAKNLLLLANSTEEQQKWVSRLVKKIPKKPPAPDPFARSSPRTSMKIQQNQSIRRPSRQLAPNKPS
Method: MRCKα, MRCKβ, ROCK1 and ROCK2 assays were performed using an IMAP fluorescence polarization assay format (Molecular Devices Inc.). 8-12 nM of each kinase (Life Technologies) was incubated for 60 min at room temperature with 100 nM FAM-S6-ribosomal protein derived peptide (synthesized by Alta Biosciences, University of Birmingham UK) in the presence of 1 μM ATP and 0.5 mM MgCl2 in 20 mM Tris buffer (pH 7.4) containing 0.01% Tween-20 and 1 mM DTT (MRCKα and β); or 1 μM ATP, 10 mM MgCl2 in 20 mM Tris buffer (pH 7.5) containing 0.25 mM EGTA 0.01% Triton X-100 and 1 mM DTT (ROCK1 and ROCK2). Typically, dose response analyses were performed over concentration ranges from 0.005-100 μM. Reactions were stopped by adding 2 assay volumes of 0.25% (v/v) IMAP binding reagent in 1×IMAP binding buffer A (Molecular Devices). After 30 min incubation to allow binding reagent to bind phosphorylated peptide, fluorescence polarization was measured on a Tecan Saphire^2 plate reader at excitation (470 nm) and emission (530 nm) wavelengths.

MRCKβ [2] = target: T1, MRCKβ; test: MRCKβ cellular assay (pMLC T18/S19 immunoblot, MDA-MB-231 cells with doxycycline inducible kinase domain); format: cell-based
Method: (§2) MRCKβ, ROCK1 and ROCK2 Cellular Assays
(§3) MDA-MB-231 cells expressing doxycycline inducible ROCK1, ROCK2 or MRCKβ kinase domains were plated at 1.1×10^5 cells per well of a 12 well plate. After 24 hours, cells were treated with 1 μg/ml doxycycline for 18 hours to induce kinase domain expression and then tested over a suitable concentration range with compounds of the invention for 60 minutes. Cells were then washed with PBS and lysed with Tris-SDS lysis Buffer (50 mM Tris-HCl pH7.4, 0.5% (v/v) SDS, 1×PhosStop Inhibitors (04 906 837 001; Roche) and 1×Complete Protease Inhibitors (04 693 124 001; Roche)). Whole cell lysates were clarified by passing through QIAshredder spin columns, separated by SDS-PAGE, and quantitative immunoblotting performed using a LI-COR Odyssey IR scanner to determine pMLC (T18/S19) and α-Tubulin levels.

ROCK1 [3] = target: T2, ROCK1 (Homo sapiens (Human), UniProt Q13464); test: ROCK1 cellular assay (pMLC T18/S19 immunoblot, MDA-MB-231 cells with doxycycline inducible kinase domain); format: cell-based
T2 sequence (Q13464 2-1354 limits assumed): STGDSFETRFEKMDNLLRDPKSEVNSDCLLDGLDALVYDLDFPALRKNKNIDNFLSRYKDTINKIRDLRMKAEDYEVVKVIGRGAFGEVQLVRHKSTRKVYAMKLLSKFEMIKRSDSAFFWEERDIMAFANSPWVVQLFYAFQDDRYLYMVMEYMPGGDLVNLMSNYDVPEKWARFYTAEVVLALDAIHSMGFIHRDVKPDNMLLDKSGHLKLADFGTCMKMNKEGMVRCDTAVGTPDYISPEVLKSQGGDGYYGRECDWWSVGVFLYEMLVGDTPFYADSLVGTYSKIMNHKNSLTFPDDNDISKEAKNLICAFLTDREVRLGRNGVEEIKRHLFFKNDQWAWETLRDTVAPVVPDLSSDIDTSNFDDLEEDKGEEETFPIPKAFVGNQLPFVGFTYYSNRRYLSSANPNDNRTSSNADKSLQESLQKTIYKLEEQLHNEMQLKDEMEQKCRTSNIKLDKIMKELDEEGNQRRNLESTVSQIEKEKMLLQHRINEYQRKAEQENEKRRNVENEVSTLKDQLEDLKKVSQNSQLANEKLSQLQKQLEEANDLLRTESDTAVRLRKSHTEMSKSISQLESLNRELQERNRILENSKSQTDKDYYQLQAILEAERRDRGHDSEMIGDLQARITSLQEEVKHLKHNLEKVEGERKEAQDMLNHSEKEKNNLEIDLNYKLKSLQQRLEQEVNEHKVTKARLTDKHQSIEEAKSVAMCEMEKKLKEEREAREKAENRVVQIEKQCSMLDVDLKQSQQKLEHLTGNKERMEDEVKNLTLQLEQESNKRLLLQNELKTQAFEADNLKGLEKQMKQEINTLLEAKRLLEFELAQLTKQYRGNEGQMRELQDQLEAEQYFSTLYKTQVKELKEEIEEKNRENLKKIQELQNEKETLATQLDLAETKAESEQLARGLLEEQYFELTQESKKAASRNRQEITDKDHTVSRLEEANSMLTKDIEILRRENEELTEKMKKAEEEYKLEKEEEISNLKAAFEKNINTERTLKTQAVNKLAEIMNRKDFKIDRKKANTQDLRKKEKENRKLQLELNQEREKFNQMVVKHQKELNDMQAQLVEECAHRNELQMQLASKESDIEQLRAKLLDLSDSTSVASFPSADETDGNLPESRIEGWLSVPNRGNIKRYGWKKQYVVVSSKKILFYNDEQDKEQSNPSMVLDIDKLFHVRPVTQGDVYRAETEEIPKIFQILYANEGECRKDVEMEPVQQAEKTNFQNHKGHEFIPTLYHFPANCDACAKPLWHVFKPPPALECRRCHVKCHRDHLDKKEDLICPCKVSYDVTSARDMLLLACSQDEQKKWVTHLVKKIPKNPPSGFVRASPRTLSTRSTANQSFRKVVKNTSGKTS
Method: as §2, §3

ROCK1 [4] = target: T2, ROCK1; test: biochemical
[5] = target: kinase targets listed in tables 3 and 4 (Homo sapiens, UniProt Q13464); test: biochemical
Sequence of kinase targets listed in tables 3 and 4 (Homo sapiens, UniProt Q13464) (Q13464 2-1354 limits assumed): as above

[6] = target: kinase targets listed in tables 3 and 4 (Homo sapiens, UniProt Q9BXA7); test: biochemical
Sequence of kinase targets listed in tables 3 and 4 (Homo sapiens, UniProt Q9BXA7) (Q9BXA7 whole entry, looked up): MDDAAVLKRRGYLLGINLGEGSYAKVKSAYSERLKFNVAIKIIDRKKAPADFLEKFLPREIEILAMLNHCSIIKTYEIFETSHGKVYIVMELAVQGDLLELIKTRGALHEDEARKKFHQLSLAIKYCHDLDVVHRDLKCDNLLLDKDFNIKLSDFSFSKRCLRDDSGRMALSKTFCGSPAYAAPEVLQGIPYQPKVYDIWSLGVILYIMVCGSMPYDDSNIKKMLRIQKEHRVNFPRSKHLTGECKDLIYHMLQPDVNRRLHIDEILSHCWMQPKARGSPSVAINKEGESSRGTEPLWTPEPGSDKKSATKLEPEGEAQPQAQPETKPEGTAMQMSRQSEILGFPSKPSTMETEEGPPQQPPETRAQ

[7] = target: kinase targets listed in tables 3 and 4 (Homo sapiens, UniProt Q9Y5S2); test: biochemical
[8] = 1 μM ATP, read-out: MRCK-a Average Ki
[9] = 1 μM ATP, read-out: MRCK-B Average Ki
[10] = 1 μM ATP, read-out: ROCK2 Average Ki
[11] = MDA-MB-231 cells, doxycycline inducible kinase domain, 60 minutes, pMLC (T18/S19), read-out: Cellular assay - MRCK-b inhibition MEAN
[12] = MDA-MB-231 cells, doxycycline inducible kinase domain, 60 minutes, pMLC (T18/S19), read-out: Cellular assay - ROCK1 inhibition MEAN

Sequence of MRCKα (Q5VT25 whole entry): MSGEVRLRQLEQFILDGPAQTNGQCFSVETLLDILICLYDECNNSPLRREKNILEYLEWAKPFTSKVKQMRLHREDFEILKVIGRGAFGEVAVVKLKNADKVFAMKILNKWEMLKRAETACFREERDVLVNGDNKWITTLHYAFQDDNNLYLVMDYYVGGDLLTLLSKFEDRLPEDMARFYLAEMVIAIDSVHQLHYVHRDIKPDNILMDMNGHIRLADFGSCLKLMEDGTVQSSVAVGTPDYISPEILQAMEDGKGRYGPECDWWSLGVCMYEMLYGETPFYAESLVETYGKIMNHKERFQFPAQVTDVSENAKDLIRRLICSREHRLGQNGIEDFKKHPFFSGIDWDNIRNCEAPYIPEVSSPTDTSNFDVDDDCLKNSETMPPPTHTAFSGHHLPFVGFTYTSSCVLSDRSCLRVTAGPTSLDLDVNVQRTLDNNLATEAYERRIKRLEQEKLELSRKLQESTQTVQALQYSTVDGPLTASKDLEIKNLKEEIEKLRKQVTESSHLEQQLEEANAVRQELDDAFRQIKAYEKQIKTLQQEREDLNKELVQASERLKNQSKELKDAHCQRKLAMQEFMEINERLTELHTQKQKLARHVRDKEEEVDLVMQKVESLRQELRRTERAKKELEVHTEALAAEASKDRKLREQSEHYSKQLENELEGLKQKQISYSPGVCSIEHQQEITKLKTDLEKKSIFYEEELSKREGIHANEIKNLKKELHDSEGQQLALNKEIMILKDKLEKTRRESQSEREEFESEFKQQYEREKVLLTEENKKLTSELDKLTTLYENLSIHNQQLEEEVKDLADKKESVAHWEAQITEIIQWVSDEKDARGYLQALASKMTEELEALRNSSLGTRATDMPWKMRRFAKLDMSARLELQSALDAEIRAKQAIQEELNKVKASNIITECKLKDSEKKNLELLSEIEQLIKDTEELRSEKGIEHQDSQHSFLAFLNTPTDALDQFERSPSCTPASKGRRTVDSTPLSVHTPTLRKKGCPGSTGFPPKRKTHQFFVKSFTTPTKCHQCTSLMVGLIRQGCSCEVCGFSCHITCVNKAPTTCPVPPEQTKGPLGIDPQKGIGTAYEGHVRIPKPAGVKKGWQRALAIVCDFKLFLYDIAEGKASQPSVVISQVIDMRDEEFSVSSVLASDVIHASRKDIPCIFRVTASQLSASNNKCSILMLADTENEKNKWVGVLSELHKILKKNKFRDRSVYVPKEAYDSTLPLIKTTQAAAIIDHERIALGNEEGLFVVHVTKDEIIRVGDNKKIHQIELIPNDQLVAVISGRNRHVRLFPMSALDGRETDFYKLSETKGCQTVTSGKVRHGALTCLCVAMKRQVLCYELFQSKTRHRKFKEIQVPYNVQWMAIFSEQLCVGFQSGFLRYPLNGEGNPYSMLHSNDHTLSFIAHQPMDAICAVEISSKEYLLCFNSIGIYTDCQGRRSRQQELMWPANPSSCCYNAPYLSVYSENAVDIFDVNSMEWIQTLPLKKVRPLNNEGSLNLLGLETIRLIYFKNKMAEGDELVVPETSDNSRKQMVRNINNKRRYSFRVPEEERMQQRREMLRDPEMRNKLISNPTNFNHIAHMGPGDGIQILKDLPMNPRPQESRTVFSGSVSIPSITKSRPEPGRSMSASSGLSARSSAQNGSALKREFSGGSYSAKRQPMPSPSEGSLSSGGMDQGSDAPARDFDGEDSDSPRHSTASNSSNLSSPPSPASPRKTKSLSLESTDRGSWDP

| Compound | Ki (MRCKα; [8]) [nM] | Ki (MRCKβ [1]; [9]) [nM] | Ki (ROCK2; [10]) [nM] | IC50 (MRCKβ [2]; [11]) [nM] | IC50 (ROCK1 [3]; [12]) [nM] | Ki (ROCK1 [4]) [nM] | IC50 [5] [nM] | Ki [5] [nM] | IC50 [6] [nM] | Ki [6] [nM] | IC50 [7] [nM] | Ki [7] [nM] | Ki (MRCKα) [nM] | Ki (MRCKβ [1]) [nM] | Ki (ROCK2) [nM] | IC50 (MRCKβ [2]) [nM] | IC50 (ROCK1 [3]) [nM] |
| --- | --- | --- | --- | --- | --- | --- | --- | --- | --- | --- | --- | --- | --- | --- | --- | --- | --- |
| c1csc(-c2c[nH]c3nccc(N4CCC[C@@]5(CCCCN5)C4)c23)n1 [Example E150, 2-[4-[(6S)-1,8-diazaspiro[5.5]undecan-8-yl]-1H-pyrrolo[2,3-b]pyridin-3-yl]thiazole] | 0.0332 | 0.0246 | 21.7 | 42.2 | > 30000 | 56.9 | 406 | 251 | 4360 | 2070 | 6.9 | 1.15 | – | – | – | – | – |
| Cc1cnc(-c2c[nH]c3nccc(N4CC[C@@]5(CCCCN5)C4)c23)s1 [Example E131, 2-[4-[(5S)-2,6-diazaspiro[4.5]decan-2-yl]-1H-pyrrolo[2,3-b]pyridin-3-yl]-5-methyl-thiazole] | 0.021 | 0.0601 | 24.8 | 318 | > 30000 | 107 | – | – | – | – | – | – | – | – | – | – | – |
| Cc1csnc1-c1c[nH]c2nccc(N3CCCC4(CCCCN4)C3)c12 (stereo not drawn) [Example E142, 3-[4-(1,8-diazaspiro[5.5]undecan-8-yl)-1H-pyrrolo[2,3-b]pyridin-3-yl]-4-methyl-isothiazole] | 0.216 | 0.203 | 33600 | 1210 | > 30000 | 104 | – | – | – | – | – | – | – | – | – | – | – |
| c1csc(-c2c[nH]c3nccc(O[C@@H]4CCCNC4)c23)n1 [Example E212, 2-[4-[[(3R)-3-piperidyl]oxy]-1H-pyrrolo[2,3-b]pyridin-3-yl]thiazole] | 0.185 | 0.184 | 7.57 | 426 | 14400 | 29.9 | – | – | – | – | – | – | – | – | – | – | – |
| c1cc(N2CCC[C@@]3(CCCCN3)C2)c2c(-c3ccsn3)c[nH]c2n1 [Example E120, 3-[4-[(6S)-1,8-diazaspiro[5.5]undecan-8-yl]-1H-pyrrolo[2,3-b]pyridin-3-yl]isothiazole] | 0.0049 | 0.0147 | 4.73 | 13.3 | 15400 | 23.8 | – | – | – | – | – | – | – | – | – | – | – |
| CCN1CCCCC12CCCN(c1ccnc3[nH]cc(-c4ncc(C)s4)c13)C2 (stereo not drawn) [Example E210, 2-[4-(1-ethyl-1,8-diazaspiro[5.5]undecan-8-yl)-1H-pyrrolo[2,3-b]pyridin-3-yl]-5-methyl-thiazole] | 0.127 | 0.0634 | 152 | 701 | > 30000 | 50200 | – | – | – | – | – | – | – | – | – | – | – |
| c1cc(N2CCCC3(CCCCN3)C2)c2c(-c3ncsn3)c[nH]c2n1 (stereo not drawn) [Example E236, 3-[4-[1,8-diazaspiro[5.5]undecan-8-yl]-1H-pyrrolo[2,3-b]pyridin-3-yl]-1,2,4-thiadiazole] | 0.0945 | 0.0898 | 105 | 145 | > 30000 | 390 | – | – | – | – | – | – | – | – | – | – | – |
| c1cc(N2CCC[C@@]3(CCCCN3)C2)c2c(-c3ncsn3)c[nH]c2n1 [Example E116, 3-[4-[(6S)-1,8-diazaspiro[5.5]undecan-8-yl]-1H-pyrrolo[2,3-b]pyridin-3-yl]-1,2,4-thiadiazole] | 0.0122 | 0.0124 | 39.4 | 142 | > 30000 | 85.1 | – | – | – | – | – | – | – | – | – | – | – |
| c1cc(N2CCC3(CCCN3)C2)c2c(-c3ccsn3)c[nH]c2n1 (stereo not drawn) [Example E136, 3-[4-(1,7-diazaspiro[4.4]nonan-7-yl)-1H-pyrrolo[2,3-b]pyridin-3-yl]isothiazole] | – | – | – | – | – | 70.7 | – | – | – | – | – | – | 0.207 | 0.12 | 14.2 | 457 | > 30000 |
